This is an account of results in patent US20110160167A1, “Steroid Derivatives Acting As Glucocorticosteroid Receptor Agonists” (AstraZeneca AB, priority 2007, published 2011).

pIC50: −log10 of the molar value.

Usually pIC50 stands for the negative decadic logarithm of the IC50, by convention in mol/L.

This assay deals with T1, recombinant human GR (Homo sapiens, UniProt P04150).
T1 construct: purchased Panvera/Invitrogen P2812 (kit P2893)
T1 sequence (P04150 1-777): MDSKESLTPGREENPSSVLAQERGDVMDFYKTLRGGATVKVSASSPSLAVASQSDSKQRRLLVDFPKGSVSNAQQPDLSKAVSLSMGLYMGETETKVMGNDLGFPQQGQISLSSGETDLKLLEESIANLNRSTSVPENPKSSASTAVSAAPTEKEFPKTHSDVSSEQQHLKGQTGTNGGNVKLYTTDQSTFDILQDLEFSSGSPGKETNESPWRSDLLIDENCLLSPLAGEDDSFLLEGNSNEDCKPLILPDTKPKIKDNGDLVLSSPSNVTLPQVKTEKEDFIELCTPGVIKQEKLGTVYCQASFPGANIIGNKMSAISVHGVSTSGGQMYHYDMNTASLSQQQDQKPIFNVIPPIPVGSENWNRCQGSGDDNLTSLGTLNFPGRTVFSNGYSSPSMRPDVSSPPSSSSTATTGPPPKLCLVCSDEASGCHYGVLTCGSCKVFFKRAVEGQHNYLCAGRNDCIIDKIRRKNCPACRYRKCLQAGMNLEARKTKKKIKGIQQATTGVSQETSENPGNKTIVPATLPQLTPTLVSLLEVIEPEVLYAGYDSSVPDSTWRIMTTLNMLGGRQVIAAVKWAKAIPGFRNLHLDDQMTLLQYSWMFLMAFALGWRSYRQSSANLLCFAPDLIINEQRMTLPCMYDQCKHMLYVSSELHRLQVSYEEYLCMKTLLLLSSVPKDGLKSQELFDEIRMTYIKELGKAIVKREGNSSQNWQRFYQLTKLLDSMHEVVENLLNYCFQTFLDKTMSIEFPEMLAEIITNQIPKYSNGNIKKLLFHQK
Description: Human Glucocorticoid Receptor (GR) Assay (fluorescence polarization, Panvera/Invitrogen kit). To be noted: GS Red tracer, 2 hours at room temperature, 100% control 10 μM Dexamethasone, read-out: Inhibition of GR binding, IC50. The procedure:
Human Glucocorticoid Receptor (GR) Assay The assay is based on a commercial kit from Panvera/Invitrogen (Part number P2893). The assay technology is fluorescence polarization. The kit utilises recombinant human GR (Panvera, Part number P2812), a Fluoromone™ labelled tracer (GS Red, Panvera, Part number P2894) and a Stabilizing Peptide 10× (Panvera, Part number P2815). The GR and Stabilizing Peptide reagents are stored at −70° C. while the GS Red is stored at −20° C. Also included in the kit are 1M DTT (Panvera, Part number P2325, stored at −20° C.) and GR Screening buffer 10× (Panvera, Part number P2814, stored at −70° C. initially but once thawed stored at room temperature). Avoid repeated freeze/thaws for all reagents. The GR Screening buffer 10× comprises 100 mM potassium phosphate, 200 mM sodium molybdate, 1 mM EDTA and 20% DMSO. Test compounds (1 μL) and controls (1 μL) in 100% DMSO were added to black polystyrene 384-well plates (Greiner low volume black flat-bottom, part number 784076). 0% control was 100% DMSO and 100% control was 10 μM Dexamethasone. Background solution (8 μL; assay buffer 10×, Stabilizing Peptide, DTT and ice cold MQ water) was added to the background wells. GS Red solution (7 μL; assay buffer 10×, Stabilizing Peptide, DTT, GS Red and ice cold water) was added to all wells except background wells. GR solution (7 μL; assay buffer 10×, Stabilizing Peptide, DTT, GR and ice cold water) was added to all wells. The plate was sealed and incubated in a dark at room temperature for 2 hours. The plate was read in an Analyst plate reader (LJL Biosystems/Molecular Devices Corporation) or other similar plate reader capable of recording fluorescence polarization (excitation wavelength 530 nm, emission wavelength 590 nm and a dichroic mirror at 561 nm).
(In general: Fluorescence polarisation rises when a labelled molecule tumbles more slowly, as on binding a larger partner.)
As to `CCC[C@H]1O[C@@H]2C[C@H]3[C@@H]4CCC5=Cc6c(cnn6-c6ccc(F)c(CN7CCN(C)CC7)c6)C[C@]5(C)[C@H]4[C@@H](O)C[C@]3(C)[C@]2(C(=O)CO)O1` [Example 5, 1-[(4aR,4bS,5S,6aS,6bS, 8S,9aR,10aS,10bS)-1-{4-fluoro-3-[(4-methylpiperazin-1-yl)methyl]phenyl}-5-hydroxy-4a,6a-dimethyl-8-propyl-4,4a,4b,5,6,6a,9a,10, 10a,10b,11,12-dodecahydro[1,3]dioxolo [3′,4′]cyclopenta [1′,2′:5,6]naphtho[1,2-f]indazol-6b(1H)-yl]-2-hydroxyethanone trifluoroacetic acid], the pIC50 was 7.11.
As for `CCC[C@@H]1O[C@@H]2C[C@H]3[C@@H]4CCC5=Cc6c(cnn6-c6ccc(F)c(CN7CCSCC7)c6)C[C@]5(C)[C@H]4[C@@H](O)C[C@]3(C)[C@]2(C(=O)CO)O1` [Example 7, 1-[(4aR,4bS,5S,6aS,6bS, 8R,9aR,10aS,10bS)-1-[4-fluoro-3-(thiomorpholin-4-ylmethyl)phenyl]-5-hydroxy-4a,6a-dimethyl-8-propyl-4,4a,4b,5,6,6a,9a,10, 10a,10b,11,12-dodecahydro[1,3]dioxolo [3′,4′]cyclopenta [1′,2′:5,6]naphtho[1,2-f]indazol-6b(1H)-yl]-2-hydroxyethanone trifluoroacetic acid], the pIC50 was 7.92.
As to `CCC[C@@H]1O[C@@H]2C[C@H]3[C@@H]4CCC5=Cc6c(cnn6-c6ccc(F)cc6)C[C@]5(C)[C@H]4[C@@H](O)C[C@]3(C)[C@]2(C(=O)CO)O1` [Example 18, 1-[(4aR,4bS,5S,6aS,6bS,8R,9aR,10aS,10bS)-1-(4-Fluorophenyl)-5-hydroxy-4a,6a-dimethyl-8-propyl-4,4a,4b,5,6,6a,9a,10,10a,10b,11,12-dodecahydro[1,3]dioxolo[3′,4′]-cyclopenta[1′,2′:5,6]naphtho[1,2-f]indazol-6b(1H)-yl]-2-hydroxyethanone], the negative logarithm of the IC50 (pIC50) is 8.64.
`CCC[C@@H]1OC2C[C@H]3[C@@H]4CCC5=Cc6c(cnn6-c6ccc(F)c(CN(CC)CC)c6)C[C@]5(C)[C@H]4[C@@H](O)C[C@]3(C)[C@]2(C(=O)CO)O1` (stereo partly drawn) [Example 6, 1-[(4aR,4bS,5S,6aS,6bS, 8R,9aR,10aS,10bS)-1-{3-[(diethylamino)methyl]-4-fluorophenyl}-5-hydroxy-4a,6a-dimethyl-8-propyl-4,4a,4b,5,6,6a,9a,10, 10a,10b,11,12-dodecahydro[1,3]dioxolo [3′,4′]cyclopenta [1′,2′:5,6]naphtho[1,2-f]indazol-6b(1H)-yl]-2-hydroxyethanone]: the pIC50 is 7.14.
On to `CCC[C@@H]1O[C@@H]2C[C@H]3[C@@H]4CCC5=Cc6c(cnn6-c6ccc(F)c(C(=O)OC)c6)C[C@]5(C)[C@H]4[C@@H](O)C[C@]3(C)[C@]2(C(=O)CO)O1` [Example 22, Methyl 2-fluoro-5-[(4aR,4bS,5S,6aS,6bS,8R,9aR,10aS,10bS)-6b-glycoloyl-5-hydroxy-4a,6a-dimethyl-8-propyl-4a,4b,5,6,6a,6b,9a,10,10a,10b,11,12-dodecahydro[1,3]dioxolo[3′,4′]cyclopenta[1′,2′:5,6]naphtho[1,2-f]indazol-1(4H)-yl]benzoate], for which the negative-log IC50 (pIC50) was 8.23.
As to `CCC[C@@H]1O[C@@H]2C[C@H]3[C@@H]4CCC5=Cc6c(cnn6-c6ccc(F)c(CN7CCC(O)CC7)c6)C[C@]5(C)[C@H]4[C@@H](O)C[C@]3(C)[C@]2(C(=O)CO)O1` [Example 9, 1-[(4aR,4bS,5S,6aS,6bS, 8R,9aR,10aS,10bS)-1-{4-fluoro-3-[(4-hydroxypiperidin-1-yl)methyl]phenyl}-5-hydroxy-4a,6a-dimethyl-8-propyl-4,4a,4b,5,6,6a,9a,10, 10a,10b,11,12-dodecahydro[1,3]dioxolo [3′,4′]cyclopenta [1′,2′:5,6]naphtho[1,2-f]indazol-6b(1H)-yl]-2-hydroxyethanone trifluoroacetic acid], the negative logarithm of the IC50 (pIC50) was 7.68.
